This is an account of results in ChEMBL document CHEMBL4837249, “Discovery of Potent Antiallergic Agents Based on an o-Aminopyridinyl Alkynyl Scaffold” (J Med Chem, 2021).

The inhibition is the relative decrease from the control value, in per cent. For orientation: IC50 means the concentration that inhibits the measured activity by half.

Test [1] concerns the target T1, Tyrosine-protein kinase Yes (Homo sapiens, UniProt P07947). In words: Inhibition of human full length recombinant Yes at 5 nM by radiometric scintillation counting analysis relative to control.
The target of test [2] is T2, Tyrosine-protein kinase TXK (Homo sapiens) (UniProt P42681).
T2 sequence (whole entry): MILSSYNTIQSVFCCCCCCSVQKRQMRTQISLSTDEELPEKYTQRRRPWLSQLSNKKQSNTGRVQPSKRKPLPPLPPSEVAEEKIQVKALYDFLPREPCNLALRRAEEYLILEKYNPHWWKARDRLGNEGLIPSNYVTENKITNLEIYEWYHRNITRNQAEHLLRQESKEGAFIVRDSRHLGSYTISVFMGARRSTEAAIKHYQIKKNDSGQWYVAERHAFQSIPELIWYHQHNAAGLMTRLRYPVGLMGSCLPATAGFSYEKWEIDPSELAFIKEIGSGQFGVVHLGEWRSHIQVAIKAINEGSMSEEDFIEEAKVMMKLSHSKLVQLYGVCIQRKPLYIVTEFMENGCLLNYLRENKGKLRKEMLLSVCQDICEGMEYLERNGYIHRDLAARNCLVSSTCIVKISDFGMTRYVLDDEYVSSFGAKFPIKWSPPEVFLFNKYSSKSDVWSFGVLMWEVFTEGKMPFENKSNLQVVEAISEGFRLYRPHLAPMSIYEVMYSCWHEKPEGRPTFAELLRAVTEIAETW
Briefly: Inhibition of human recombinant […] (256 to end) at 5 nM by radiometric scintillation counting analysis relative to control.

The subject of test [3] is RBL-2H3. In words: Antiallergic activity against anti-DNP-IgE sensitized rat RBL-2H3 cells assessed as […] of degranulation by measuring beta-hexosaminidase release using P-nitrophenyl-N-acetyl-D-glucosamide as substrate at 1 uM measured after 1 hr by microplate reader relative to control. Type of test: functional.
Test [4] concerns the target Tyrosine-protein kinase Lyn (Homo sapiens, UniProt P07948). Briefly: Inhibition of human full length recombinant LYN at 500 nM by radiometric scintillation counting analysis relative to control.
Test [5] concerns the target T3, Tyrosine-protein kinase ITK/TSK (Homo sapiens) (UniProt Q08881).
T3 sequence (whole entry): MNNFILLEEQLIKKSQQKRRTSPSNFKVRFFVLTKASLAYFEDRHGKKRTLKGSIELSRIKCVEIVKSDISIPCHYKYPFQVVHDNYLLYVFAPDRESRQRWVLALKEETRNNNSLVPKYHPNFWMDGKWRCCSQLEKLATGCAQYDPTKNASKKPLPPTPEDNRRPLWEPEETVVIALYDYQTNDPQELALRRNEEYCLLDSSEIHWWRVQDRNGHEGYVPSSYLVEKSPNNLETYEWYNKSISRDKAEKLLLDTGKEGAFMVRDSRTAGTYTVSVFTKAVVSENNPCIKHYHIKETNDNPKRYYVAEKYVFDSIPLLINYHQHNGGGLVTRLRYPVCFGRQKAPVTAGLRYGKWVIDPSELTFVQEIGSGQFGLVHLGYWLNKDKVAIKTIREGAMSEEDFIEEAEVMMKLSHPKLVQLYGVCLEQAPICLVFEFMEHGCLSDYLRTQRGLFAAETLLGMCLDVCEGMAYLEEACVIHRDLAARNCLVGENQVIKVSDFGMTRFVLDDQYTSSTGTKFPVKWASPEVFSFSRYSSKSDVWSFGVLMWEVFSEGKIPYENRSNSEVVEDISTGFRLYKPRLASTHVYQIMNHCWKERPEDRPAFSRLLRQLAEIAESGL
In words: Inhibition of human recombinant ITK (352 to 617) at 5 nM by radiometric scintillation counting analysis relative to control.

Test [6] concerns the target T1, Tyrosine-protein kinase Yes. Briefly: Inhibition of human full length recombinant Yes at 50 nM by radiometric scintillation counting analysis relative to control.
In test [7] the target is Tyrosine-protein kinase Srms (Homo sapiens, UniProt Q9H3Y6). In words: Inhibition of human SRMS at 50 nM by radiometric scintillation counting analysis relative to control.
Test [8] addresses Protein-tyrosine kinase 6 (Homo sapiens) (UniProt Q13882). In words: Inhibition of human recombinant BRK (174 to 734) at 500 nM by radiometric scintillation counting analysis relative to control.
For test [9] the target is unchanged. In words: Inhibition of human recombinant BRK (174 to 734) at 5 nM by radiometric scintillation counting analysis relative to control.
Test [10] addresses Tyrosine-protein kinase BTK (Homo sapiens) (UniProt Q06187). In words: Inhibition of human full length recombinant BTK at 5 nM by radiometric scintillation counting analysis relative to control.
In test [11] the target is T1, Tyrosine-protein kinase Yes. Briefly: Inhibition of human full length recombinant Yes at 500 nM by radiometric scintillation counting analysis relative to control.
In test [12] the target is Tyrosine-protein kinase Fgr (Homo sapiens, UniProt P09769). Briefly: Inhibition of human recombinant FGR (456 to 770) at 50 nM by radiometric scintillation counting analysis relative to control.
Test [13] concerns the target Tyrosine-protein kinase Lck (Homo sapiens, UniProt P06239). In words: Inhibition of human full length recombinant LCK by radiometric scintillation counting analysis.
Test [14] deals with T4, Tyrosine-protein kinase Tec (Homo sapiens) (UniProt P42680).
T4 sequence (whole entry): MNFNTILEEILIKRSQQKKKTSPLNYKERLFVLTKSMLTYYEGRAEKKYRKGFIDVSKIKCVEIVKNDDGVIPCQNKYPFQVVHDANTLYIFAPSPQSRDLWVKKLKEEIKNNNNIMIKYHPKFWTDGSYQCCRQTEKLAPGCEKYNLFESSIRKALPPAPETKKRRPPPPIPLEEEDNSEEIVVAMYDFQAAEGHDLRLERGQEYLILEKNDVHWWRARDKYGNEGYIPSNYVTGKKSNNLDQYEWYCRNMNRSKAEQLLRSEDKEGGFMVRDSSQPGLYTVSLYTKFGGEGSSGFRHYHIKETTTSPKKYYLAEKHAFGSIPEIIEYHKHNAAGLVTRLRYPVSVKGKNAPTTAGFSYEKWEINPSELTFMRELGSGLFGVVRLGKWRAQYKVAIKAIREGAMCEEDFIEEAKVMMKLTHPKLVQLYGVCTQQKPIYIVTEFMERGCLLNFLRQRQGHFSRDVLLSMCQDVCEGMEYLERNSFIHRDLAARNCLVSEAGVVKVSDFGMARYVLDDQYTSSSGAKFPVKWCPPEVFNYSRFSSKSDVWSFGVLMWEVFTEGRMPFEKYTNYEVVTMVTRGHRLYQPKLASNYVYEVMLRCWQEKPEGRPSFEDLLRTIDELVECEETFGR
In words: Inhibition of human recombinant Tec (174 to end) at 5 nM by radiometric scintillation counting analysis relative to control.

In test [15] the target is T4, Tyrosine-protein kinase Tec (Homo sapiens). In words: Inhibition of human recombinant Tec (174 to end) at 500 nM by radiometric scintillation counting analysis relative to control.
The target in test [16] is Tyrosine-protein kinase HCK (Homo sapiens, UniProt P08631). In words: Inhibition of human recombinant HCK (230 to 497) by radiometric scintillation counting analysis.
Test [17] addresses Cytoplasmic tyrosine-protein kinase BMX (Homo sapiens, UniProt P51813). Briefly: Inhibition of human full length recombinant Bmx by radiometric scintillation counting analysis.

Where only a bound is given, the exact number is not on record here.

Sequence of Tyrosine-protein kinase Fgr (P09769 2-529 limits assumed): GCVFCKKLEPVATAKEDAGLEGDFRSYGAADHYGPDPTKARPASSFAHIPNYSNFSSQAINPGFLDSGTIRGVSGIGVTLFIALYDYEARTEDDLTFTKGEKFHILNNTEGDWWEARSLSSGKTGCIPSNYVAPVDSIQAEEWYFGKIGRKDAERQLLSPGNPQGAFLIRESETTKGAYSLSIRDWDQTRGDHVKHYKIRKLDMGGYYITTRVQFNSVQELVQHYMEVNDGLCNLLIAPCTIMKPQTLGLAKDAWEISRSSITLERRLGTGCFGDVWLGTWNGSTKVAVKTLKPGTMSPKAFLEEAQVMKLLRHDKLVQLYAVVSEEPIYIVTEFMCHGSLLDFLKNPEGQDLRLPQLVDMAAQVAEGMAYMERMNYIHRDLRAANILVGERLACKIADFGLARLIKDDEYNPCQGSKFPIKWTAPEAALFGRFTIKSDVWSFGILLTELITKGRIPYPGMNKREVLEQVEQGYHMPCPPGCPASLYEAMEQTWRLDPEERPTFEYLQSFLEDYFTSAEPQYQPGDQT
Sequence of Tyrosine-protein kinase Srms (Q9H3Y6 whole entry): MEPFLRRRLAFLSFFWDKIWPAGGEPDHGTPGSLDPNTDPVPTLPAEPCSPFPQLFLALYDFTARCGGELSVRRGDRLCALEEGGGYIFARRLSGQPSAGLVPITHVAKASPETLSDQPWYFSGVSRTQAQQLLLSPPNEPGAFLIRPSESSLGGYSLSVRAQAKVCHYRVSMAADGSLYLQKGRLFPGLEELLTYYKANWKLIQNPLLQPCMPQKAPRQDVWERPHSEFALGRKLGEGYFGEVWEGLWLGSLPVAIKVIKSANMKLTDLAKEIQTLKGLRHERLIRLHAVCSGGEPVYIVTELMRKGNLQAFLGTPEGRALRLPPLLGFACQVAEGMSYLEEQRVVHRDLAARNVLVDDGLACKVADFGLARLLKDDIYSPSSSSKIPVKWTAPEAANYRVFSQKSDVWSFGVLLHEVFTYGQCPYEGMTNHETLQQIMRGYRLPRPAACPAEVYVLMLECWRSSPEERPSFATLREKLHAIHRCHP
Sequence of Protein-tyrosine kinase 6 (Homo sapiens) (Q13882 whole entry, looked up): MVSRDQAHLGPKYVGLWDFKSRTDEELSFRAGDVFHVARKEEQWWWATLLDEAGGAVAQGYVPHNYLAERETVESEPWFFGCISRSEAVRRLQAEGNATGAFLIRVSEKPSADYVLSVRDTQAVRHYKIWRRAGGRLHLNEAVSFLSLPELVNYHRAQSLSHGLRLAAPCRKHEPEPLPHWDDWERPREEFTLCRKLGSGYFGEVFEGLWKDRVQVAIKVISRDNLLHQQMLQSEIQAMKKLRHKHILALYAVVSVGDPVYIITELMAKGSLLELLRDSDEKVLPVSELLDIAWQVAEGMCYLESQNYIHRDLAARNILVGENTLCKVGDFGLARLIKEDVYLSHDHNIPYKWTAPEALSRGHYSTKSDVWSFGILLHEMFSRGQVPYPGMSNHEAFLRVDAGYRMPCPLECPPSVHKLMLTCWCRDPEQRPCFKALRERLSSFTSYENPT
T1 sequence (P07947 2-543 limits assumed): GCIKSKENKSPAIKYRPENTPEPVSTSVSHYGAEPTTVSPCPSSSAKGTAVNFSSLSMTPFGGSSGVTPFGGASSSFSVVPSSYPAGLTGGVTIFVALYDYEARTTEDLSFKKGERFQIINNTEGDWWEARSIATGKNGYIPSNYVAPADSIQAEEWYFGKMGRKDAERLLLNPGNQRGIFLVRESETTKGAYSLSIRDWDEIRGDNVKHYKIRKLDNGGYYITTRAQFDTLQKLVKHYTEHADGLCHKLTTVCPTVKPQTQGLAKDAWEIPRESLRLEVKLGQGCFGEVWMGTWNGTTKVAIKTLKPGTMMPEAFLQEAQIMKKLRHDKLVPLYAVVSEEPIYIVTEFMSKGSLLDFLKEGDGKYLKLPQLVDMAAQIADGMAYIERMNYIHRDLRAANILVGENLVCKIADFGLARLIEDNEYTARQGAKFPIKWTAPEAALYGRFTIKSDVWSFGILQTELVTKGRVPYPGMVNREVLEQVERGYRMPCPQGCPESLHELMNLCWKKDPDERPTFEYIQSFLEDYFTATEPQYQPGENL
Sequence of Tyrosine-protein kinase Lyn (P07948 2-512 limits assumed): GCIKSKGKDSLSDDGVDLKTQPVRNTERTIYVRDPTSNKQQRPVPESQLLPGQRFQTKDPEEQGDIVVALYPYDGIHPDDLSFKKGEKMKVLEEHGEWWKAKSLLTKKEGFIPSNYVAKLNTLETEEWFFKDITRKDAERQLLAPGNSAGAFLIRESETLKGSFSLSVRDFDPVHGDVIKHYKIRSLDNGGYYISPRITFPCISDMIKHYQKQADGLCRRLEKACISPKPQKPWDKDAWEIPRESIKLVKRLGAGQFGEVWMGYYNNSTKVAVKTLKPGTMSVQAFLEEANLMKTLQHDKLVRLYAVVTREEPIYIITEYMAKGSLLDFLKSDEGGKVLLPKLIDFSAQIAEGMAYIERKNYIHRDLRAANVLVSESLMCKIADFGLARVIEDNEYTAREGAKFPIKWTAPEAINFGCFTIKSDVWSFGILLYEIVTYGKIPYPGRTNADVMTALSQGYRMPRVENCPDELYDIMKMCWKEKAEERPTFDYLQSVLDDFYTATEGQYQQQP
Sequence of Tyrosine-protein kinase BTK (Homo sapiens) (Q06187 whole entry): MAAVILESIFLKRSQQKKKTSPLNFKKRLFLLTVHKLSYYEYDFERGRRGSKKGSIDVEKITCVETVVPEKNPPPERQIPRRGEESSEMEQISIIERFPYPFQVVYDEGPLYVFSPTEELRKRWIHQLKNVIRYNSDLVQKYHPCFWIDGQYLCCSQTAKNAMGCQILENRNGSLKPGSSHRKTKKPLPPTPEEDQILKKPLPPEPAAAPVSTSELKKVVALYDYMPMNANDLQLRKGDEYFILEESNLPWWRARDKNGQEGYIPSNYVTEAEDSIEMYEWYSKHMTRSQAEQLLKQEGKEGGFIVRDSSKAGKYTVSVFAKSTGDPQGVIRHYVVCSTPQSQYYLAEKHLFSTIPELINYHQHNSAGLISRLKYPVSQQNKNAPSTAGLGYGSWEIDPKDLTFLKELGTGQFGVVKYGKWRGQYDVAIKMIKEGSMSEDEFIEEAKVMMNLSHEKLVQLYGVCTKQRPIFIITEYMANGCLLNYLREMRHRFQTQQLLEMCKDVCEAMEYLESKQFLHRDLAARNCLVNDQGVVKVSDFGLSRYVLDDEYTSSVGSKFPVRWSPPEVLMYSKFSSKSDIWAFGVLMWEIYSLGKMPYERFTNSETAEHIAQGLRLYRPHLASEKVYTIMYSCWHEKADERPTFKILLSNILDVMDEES
Sequence of Cytoplasmic tyrosine-protein kinase BMX (P51813 whole entry): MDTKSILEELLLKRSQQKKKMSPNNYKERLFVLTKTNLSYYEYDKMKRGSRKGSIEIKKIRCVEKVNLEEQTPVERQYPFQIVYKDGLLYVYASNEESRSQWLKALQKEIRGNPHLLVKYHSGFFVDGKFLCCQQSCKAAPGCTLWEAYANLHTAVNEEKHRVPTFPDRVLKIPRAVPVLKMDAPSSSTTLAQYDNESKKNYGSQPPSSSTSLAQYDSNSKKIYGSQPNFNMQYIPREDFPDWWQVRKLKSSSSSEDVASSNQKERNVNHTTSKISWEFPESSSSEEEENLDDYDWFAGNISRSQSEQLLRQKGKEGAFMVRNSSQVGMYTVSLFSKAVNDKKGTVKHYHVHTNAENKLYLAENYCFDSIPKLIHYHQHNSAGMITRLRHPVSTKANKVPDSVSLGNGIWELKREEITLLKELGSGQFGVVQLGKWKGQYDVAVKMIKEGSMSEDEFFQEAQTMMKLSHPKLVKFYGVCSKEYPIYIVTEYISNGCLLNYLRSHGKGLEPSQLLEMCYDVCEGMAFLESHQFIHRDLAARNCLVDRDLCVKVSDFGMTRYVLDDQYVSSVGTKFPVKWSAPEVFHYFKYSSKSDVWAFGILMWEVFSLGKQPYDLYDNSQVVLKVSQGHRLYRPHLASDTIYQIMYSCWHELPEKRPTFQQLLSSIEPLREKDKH
Sequence of Tyrosine-protein kinase HCK (P08631 whole entry): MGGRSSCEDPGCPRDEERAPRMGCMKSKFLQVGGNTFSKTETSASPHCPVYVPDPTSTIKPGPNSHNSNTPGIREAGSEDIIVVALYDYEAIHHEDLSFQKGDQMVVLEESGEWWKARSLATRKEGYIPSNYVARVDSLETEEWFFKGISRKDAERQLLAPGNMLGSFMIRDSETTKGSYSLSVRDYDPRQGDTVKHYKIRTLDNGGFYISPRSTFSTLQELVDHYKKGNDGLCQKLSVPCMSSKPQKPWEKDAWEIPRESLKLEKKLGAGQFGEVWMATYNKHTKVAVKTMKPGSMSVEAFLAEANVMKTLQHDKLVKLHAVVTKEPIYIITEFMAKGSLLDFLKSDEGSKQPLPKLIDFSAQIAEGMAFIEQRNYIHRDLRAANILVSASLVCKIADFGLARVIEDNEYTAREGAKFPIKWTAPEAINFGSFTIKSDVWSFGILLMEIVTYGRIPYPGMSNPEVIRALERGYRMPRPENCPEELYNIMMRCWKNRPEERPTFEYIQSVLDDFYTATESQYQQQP
Sequence of Tyrosine-protein kinase Lck (P06239 whole entry): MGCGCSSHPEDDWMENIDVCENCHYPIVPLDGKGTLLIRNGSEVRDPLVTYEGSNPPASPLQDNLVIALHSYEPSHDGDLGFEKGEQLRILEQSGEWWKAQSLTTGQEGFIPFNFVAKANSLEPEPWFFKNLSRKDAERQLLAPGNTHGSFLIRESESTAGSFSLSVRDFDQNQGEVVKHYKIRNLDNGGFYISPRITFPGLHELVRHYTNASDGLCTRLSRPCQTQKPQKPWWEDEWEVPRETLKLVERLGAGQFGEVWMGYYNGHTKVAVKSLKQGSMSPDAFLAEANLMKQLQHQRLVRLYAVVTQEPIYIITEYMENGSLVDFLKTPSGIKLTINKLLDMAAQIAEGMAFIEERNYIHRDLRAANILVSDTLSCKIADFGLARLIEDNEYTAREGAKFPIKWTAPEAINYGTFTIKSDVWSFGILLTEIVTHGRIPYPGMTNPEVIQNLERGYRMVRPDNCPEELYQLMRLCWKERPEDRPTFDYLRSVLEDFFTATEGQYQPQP

Take `Cc1ccc(C(=O)Nc2ccc(OC(F)(F)F)cc2)cc1C#Cc1cc(-c2cnn(C)c2)cnc1N`: the inhibition in [1] is 0%; in test [2], 12%; in test [4], 99%; in test [5], 0%; in test [6] it was 39%; in test [7], 22%. Moreover, the inhibition in [8] is 92%; in [9], 17%; in test [10], -4%; in [11], 94%; in test [12] it was 34%. Besides, the inhibition at 1 µM in test [3] turned out to be 144%.
For `Cc1ccc(C(=O)Nc2ccc(Cl)cc2Cl)cc1C#Cc1cc(-c2cnn(C)c2)cnc1N`, the inhibition in test [1] was -7%; in test [2], 2%; in test [4], 105%; in test [14], -5%; in [5], -5%; in test [6] it was 18%. In addition, the inhibition in [15] was -7%; in test [7] it was 19%; in [8], 85%; in [9], 9%; in [10], 8%; in test [11] it was 39%. Further, the inhibition in [12] turned out to be 20%. Further, the concentration for half-maximal inhibition (IC50) in test [13] was 29 nM; in test [16], 57 nM; in [17], greater than 1000 nM.
Regarding `Cc1ccc(C(=O)Nc2cc(C(F)(F)F)cc(C(F)(F)F)c2)cc1C#Cc1cc(-c2cnn(C)c2)cnc1N`, the inhibition was 17% in test [2]; 96% in test [4]; 1% in test [14]; -8% in test [5]; 14% in test [6]; -3% in [15]. Moreover, the inhibition is 51% in test [7]; 22% in test [8]; -2% in test [9]; 16% in [10]; 98% in test [11]; 71% in [12]. Also, the inhibition at 1 µM in test [3] came out at 144%. The results for the half-maximal inhibitory concentration (IC50) in test [13], in [16] and in [17] were 101 nM, 9 nM and 126 nM, respectively.
